Assay results taken from EP1132382A1, “3-Oxy-7-sulfamyl-3,4-dihydro-1,2,4-benzothiadazine-1,1-dioxide derivatives having diuretic and/or natriuretic activity” (Farma Invent B.V., priority 2000, dated 2001).

Assays:
[1] = Bioavailability study of epithiazide in healthy volunteers; type: in vivo
[2] = Hydrolysis of epithiazide to hydroxyhydrothiazide in aqueous phosphate buffer; type: physicochemical; conditions: 0.067 m phosphate buffer, pH=7, 37°C, 0.067 M aqueous phosphate buffer, read-out: epithiazide cleaved into hydroxyhydrothiazide
Description: Figure 1: Hydrolysis of epithiazide to hydroxyhydrothiazide under various temperatures and pH in a 0.067 M phosphate buffer.
Epithiazide was contacted with an aqueous phosphate buffer of 0.067 M at two different temperatures (RT and 37°C), at different pHs, ranging from 5,2 to 13.

[3] = Intravenous administration to dogs: elimination and urine production; type: in vivo; conditions: 0.08-0.4 mg/kg
Description: The pharmacotherapeutic activity of the hydroxyhydrothiazides has been evaluated. The natriuretic an/or diuretic activity has been determined by testing on animals and healthy volunteers.
The elimination from the body was monitored for 48 hours. […] The diuretic effect was monitored by measuring the urine production.

[4] = pKa of isolated hydroxyhydrothiazide; type: physicochemical; conditions: isolated and purified product
Description: The hydroxyhydrothiazide was synthesised by the hydrolysis of epithiazide. Conversion to hydroxyhydrothiazide was completed in 72 hours at 37 °C in a 0.067 M phosphate buffer.

[5] = after administration of a suitable dose of epithiazide

SMILES	detection in the plasma [1, 5]	detection in the urine [1, 5]	degraded at 10 h [2] [%]	distribution of the compound throughout the body [3]	diuretic effect (urine production) [3]	half-life compared with conventional thiazide-based diuretics such as epithiazide and hydrochlorothiazide ([3]; elimination monitored for 48 hours)	pKa [4]	biological half-life (relative to epithiazide) ([1]; compound found after administration of epithiazide)
NS(=O)(=O)c1cc2c(cc1Cl)NC(CSCC(F)(F)F)NS2(=O)=O (centres unmarked) [epithiazide]	no epithiazide could be detected	detected	> 80	–	–	–	–	–
NS(=O)(=O)c1cc2c(cc1Cl)NC(O)NS2(=O)=O (centres unmarked) [hydroxyhydrothiazide]	–	–	–	rapid distribution	instant diuretic effect	about twice as long	9.5	longer biological half-life
